Results as given in PMC9571063 (Molecules, 2022).

Key:
[1] = target: T1, GRK1 (Homo sapiens, UniProt Q15835); experiment: KINOMEscan; format: binding; conditions: read-out: Percent Control
T1 construct: purchased Eurofins DiscoverX KINOMEscan (scanMAX 468)

[2] = target: T2, ERK2 (Homo sapiens, UniProt P28482); experiment: KINOMEscan; format: binding; conditions: read-out: Percent Control
T2 construct: purchased Eurofins DiscoverX KINOMEscan (scanMAX 468)

[3] = target: T3, MKNK2 (Homo sapiens, UniProt Q9HBH9); experiment: KINOMEscan; format: binding; conditions: read-out: Percent Control
T3 construct: purchased Eurofins DiscoverX KINOMEscan (scanMAX 468)

[4] = target: T4, FER (Homo sapiens, UniProt P16591); experiment: KINOMEscan; format: binding; conditions: read-out: Percent Control
T4 construct: purchased Eurofins DiscoverX KINOMEscan (scanMAX 468)

[5] = target: T5, AXL (Homo sapiens, UniProt P30530); experiment: KINOMEscan; format: binding; conditions: read-out: Percent Control
T5 construct: purchased Eurofins DiscoverX KINOMEscan (scanMAX 468)

[6] = target: T6, PIK3CA(Q546K) (Homo sapiens, UniProt P42336, Q546K); experiment: KINOMEscan; format: binding; conditions: read-out: Percent Control
T6 construct: purchased Eurofins DiscoverX KINOMEscan (scanMAX 468)

[7] = target: T7, PIK3CA(H1047L) (Homo sapiens, UniProt P42336, H1047L); experiment: KINOMEscan; format: binding; conditions: read-out: Percent Control
T7 construct: purchased Eurofins DiscoverX KINOMEscan (scanMAX 468)

[8] = target: T8, ABL1(M351T)-phosphorylated (Homo sapiens, UniProt P00519, M351T); experiment: KINOMEscan; format: binding; conditions: read-out: Percent Control
T8 construct: purchased Eurofins DiscoverX KINOMEscan (scanMAX 468)

[9] = target: T9, FLT3(D835V) (Homo sapiens, UniProt P36888, D835V); experiment: KINOMEscan; format: binding; conditions: read-out: Percent Control
T9 construct: purchased Eurofins DiscoverX KINOMEscan (scanMAX 468)

[10] = target: T10, RSK3(Kin.Dom.2-C-terminal) (Homo sapiens, UniProt Q15349); experiment: KINOMEscan; format: binding; conditions: read-out: Percent Control
T10 construct: RSK3(Kin.Dom.2-C-terminal); purchased Eurofins DiscoverX KINOMEscan (scanMAX 468)

[11] = target: T11, TGFBR2 (Homo sapiens, UniProt P37173); experiment: KINOMEscan; format: binding; conditions: read-out: Percent Control
T11 construct: purchased Eurofins DiscoverX KINOMEscan (scanMAX 468)

[12] = target: T12, BMPR2 (Homo sapiens, UniProt Q13873); experiment: KINOMEscan; format: binding; conditions: read-out: Percent Control
T12 construct: purchased Eurofins DiscoverX KINOMEscan (scanMAX 468)

[13] = target: T13, PAK3 (Homo sapiens, UniProt O75914); experiment: KINOMEscan; format: binding; conditions: read-out: Percent Control
T13 construct: purchased Eurofins DiscoverX KINOMEscan (scanMAX 468)

[14] = target: T14, CDC2L5 (Homo sapiens, UniProt Q14004); experiment: KINOMEscan; format: binding; conditions: read-out: Percent Control
T14 construct: purchased Eurofins DiscoverX KINOMEscan (scanMAX 468)

[15] = target: T15, PHKG2 (Homo sapiens, UniProt P15735); experiment: KINOMEscan; format: binding; conditions: read-out: Percent Control
T15 construct: purchased Eurofins DiscoverX KINOMEscan (scanMAX 468)

[16] = target: T16, CASK (Homo sapiens, UniProt O14936); experiment: KINOMEscan; format: binding; conditions: read-out: Percent Control
T16 construct: purchased Eurofins DiscoverX KINOMEscan (scanMAX 468)

[17] = target: T17, CSNK1G2 (Homo sapiens, UniProt P78368); experiment: KINOMEscan; format: binding; conditions: read-out: Percent Control
T17 construct: purchased Eurofins DiscoverX KINOMEscan (scanMAX 468)

[18] = target: T18, MRCKB (Homo sapiens, UniProt Q9Y5S2); experiment: KINOMEscan; format: binding; conditions: read-out: Percent Control
T18 construct: purchased Eurofins DiscoverX KINOMEscan (scanMAX 468)

[19] = target: T19, ABL1(F317I)-nonphosphorylated (Homo sapiens, UniProt P00519, F317I); experiment: KINOMEscan; format: binding; conditions: read-out: Percent Control
T19 construct: purchased Eurofins DiscoverX KINOMEscan (scanMAX 468)

[20] = target: T20, TRPM6 (Homo sapiens, UniProt Q9BX84); experiment: KINOMEscan; format: binding; conditions: read-out: Percent Control
T20 construct: purchased Eurofins DiscoverX KINOMEscan (scanMAX 468)

[21] = target: T21, ADCK3 (Homo sapiens, UniProt Q8NI60); experiment: KINOMEscan; format: binding; conditions: read-out: Percent Control
T21 construct: purchased Eurofins DiscoverX KINOMEscan (scanMAX 468)

[22] = target: T22, MEK3 (Homo sapiens, UniProt P46734); experiment: KINOMEscan; format: binding; conditions: read-out: Percent Control
T22 construct: purchased Eurofins DiscoverX KINOMEscan (scanMAX 468)

[23] = target: T23, MARK1 (Homo sapiens, UniProt Q9P0L2); experiment: KINOMEscan; format: binding; conditions: read-out: Percent Control
T23 construct: purchased Eurofins DiscoverX KINOMEscan (scanMAX 468)

[24] = target: T24, FES (Homo sapiens, UniProt P07332); experiment: KINOMEscan; format: binding; conditions: read-out: Percent Control
T24 construct: purchased Eurofins DiscoverX KINOMEscan (scanMAX 468)

[25] = target: T25, MAP4K3 (Homo sapiens, UniProt Q8IVH8); experiment: KINOMEscan; format: binding; conditions: read-out: Percent Control
T25 construct: purchased Eurofins DiscoverX KINOMEscan (scanMAX 468)

[26] = target: T26, PRKG1 (Homo sapiens, UniProt Q13976); experiment: KINOMEscan; format: binding; conditions: read-out: Percent Control
T26 construct: purchased Eurofins DiscoverX KINOMEscan (scanMAX 468)

[27] = target: T27, PDGFRA (Homo sapiens, UniProt P16234); experiment: KINOMEscan; format: binding; conditions: read-out: Percent Control
T27 construct: purchased Eurofins DiscoverX KINOMEscan (scanMAX 468)

[28] = target: T28, FYN (Homo sapiens, UniProt P06241); experiment: KINOMEscan; format: binding; conditions: read-out: Percent Control
T28 construct: purchased Eurofins DiscoverX KINOMEscan (scanMAX 468)

[29] = target: T29, DCAMKL3 (Homo sapiens, UniProt Q9C098); experiment: KINOMEscan; format: binding; conditions: read-out: Percent Control
T29 construct: purchased Eurofins DiscoverX KINOMEscan (scanMAX 468)

[30] = target: T30, ABL1(F317I)-phosphorylated (Homo sapiens, UniProt P00519, F317I); experiment: KINOMEscan; format: binding; conditions: read-out: Percent Control
T30 construct: purchased Eurofins DiscoverX KINOMEscan (scanMAX 468)

[31] = target: T31, RET(M918T) (Homo sapiens, UniProt P07949, M918T); experiment: KINOMEscan; format: binding; conditions: read-out: Percent Control
T31 construct: purchased Eurofins DiscoverX KINOMEscan (scanMAX 468)

[32] = target: T32, CAMKK2 (Homo sapiens, UniProt Q96RR4); experiment: KINOMEscan; format: binding; conditions: read-out: Percent Control
T32 construct: purchased Eurofins DiscoverX KINOMEscan (scanMAX 468)

[33] = target: T33, MST2 (Homo sapiens, UniProt Q13188); experiment: KINOMEscan; format: binding; conditions: read-out: Percent Control
T33 construct: purchased Eurofins DiscoverX KINOMEscan (scanMAX 468)

[34] = target: T34, PLK2 (Homo sapiens, UniProt Q9NYY3); experiment: KINOMEscan; format: binding; conditions: read-out: Percent Control
T34 construct: purchased Eurofins DiscoverX KINOMEscan (scanMAX 468)

[35] = system: Human skin fibroblasts; parameters: method as in ref 14 (a number printed in a supplementary file, which may have a reference list of its own: not looked up in the article's list); conditions: DB18[a], footnote not given; read-out: Cytotoxic studies IC50 Fibroblasts; cited from earlier work
[36] = target: T35, DCAMKL2 (Homo sapiens, UniProt Q8N568); experiment: KINOMEscan; format: binding; conditions: read-out: Percent Control
T35 construct: purchased Eurofins DiscoverX KINOMEscan (scanMAX 468)

[37] = target: T36, TBK1 (Homo sapiens, UniProt Q9UHD2); experiment: KINOMEscan; format: binding; conditions: read-out: Percent Control
T36 construct: purchased Eurofins DiscoverX KINOMEscan (scanMAX 468)

[38] = target: T37, ACVRL1 (Homo sapiens, UniProt P37023); experiment: KINOMEscan; format: binding; conditions: read-out: Percent Control
T37 construct: purchased Eurofins DiscoverX KINOMEscan (scanMAX 468)

[39] = target: T38, CDK11 (Homo sapiens, UniProt Q9BWU1); experiment: KINOMEscan; format: binding; conditions: read-out: Percent Control
T38 construct: purchased Eurofins DiscoverX KINOMEscan (scanMAX 468)

[40] = target: T39, CDK8 (Homo sapiens, UniProt P49336); experiment: KINOMEscan; format: binding; conditions: read-out: Percent Control
T39 construct: purchased Eurofins DiscoverX KINOMEscan (scanMAX 468)

[41] = target: T40, MAP3K2 (Homo sapiens, UniProt Q9Y2U5); experiment: KINOMEscan; format: binding; conditions: read-out: Percent Control
T40 construct: purchased Eurofins DiscoverX KINOMEscan (scanMAX 468)

[42] = target: T41, CHEK2 (Homo sapiens, UniProt O96017); experiment: KINOMEscan; format: binding; conditions: read-out: Percent Control
T41 construct: purchased Eurofins DiscoverX KINOMEscan (scanMAX 468)
T41 sequence (O96017 whole entry): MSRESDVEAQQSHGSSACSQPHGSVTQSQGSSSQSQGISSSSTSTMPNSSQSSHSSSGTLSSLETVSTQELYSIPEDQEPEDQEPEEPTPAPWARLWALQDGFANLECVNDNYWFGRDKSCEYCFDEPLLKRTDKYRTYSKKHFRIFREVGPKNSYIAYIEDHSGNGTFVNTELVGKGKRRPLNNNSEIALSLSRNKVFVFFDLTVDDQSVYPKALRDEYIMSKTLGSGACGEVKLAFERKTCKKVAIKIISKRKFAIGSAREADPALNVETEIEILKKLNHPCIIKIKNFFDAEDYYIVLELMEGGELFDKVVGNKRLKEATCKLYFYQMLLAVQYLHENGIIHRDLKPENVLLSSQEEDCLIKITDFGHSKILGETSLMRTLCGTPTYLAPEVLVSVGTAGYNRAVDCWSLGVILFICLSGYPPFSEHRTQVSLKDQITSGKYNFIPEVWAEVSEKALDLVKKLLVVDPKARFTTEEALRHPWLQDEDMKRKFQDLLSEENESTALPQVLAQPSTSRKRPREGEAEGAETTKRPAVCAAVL

T2 sequence (P28482 whole entry): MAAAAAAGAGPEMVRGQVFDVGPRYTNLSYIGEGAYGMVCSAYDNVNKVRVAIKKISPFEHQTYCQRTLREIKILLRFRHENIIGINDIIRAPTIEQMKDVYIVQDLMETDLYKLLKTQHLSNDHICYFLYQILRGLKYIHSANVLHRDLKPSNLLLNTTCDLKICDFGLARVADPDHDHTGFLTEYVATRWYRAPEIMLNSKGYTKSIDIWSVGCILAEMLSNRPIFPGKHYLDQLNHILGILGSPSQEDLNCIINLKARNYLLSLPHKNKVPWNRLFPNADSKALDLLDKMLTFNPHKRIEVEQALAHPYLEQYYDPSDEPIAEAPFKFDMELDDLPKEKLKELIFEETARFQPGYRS
T25 sequence (Q8IVH8 whole entry): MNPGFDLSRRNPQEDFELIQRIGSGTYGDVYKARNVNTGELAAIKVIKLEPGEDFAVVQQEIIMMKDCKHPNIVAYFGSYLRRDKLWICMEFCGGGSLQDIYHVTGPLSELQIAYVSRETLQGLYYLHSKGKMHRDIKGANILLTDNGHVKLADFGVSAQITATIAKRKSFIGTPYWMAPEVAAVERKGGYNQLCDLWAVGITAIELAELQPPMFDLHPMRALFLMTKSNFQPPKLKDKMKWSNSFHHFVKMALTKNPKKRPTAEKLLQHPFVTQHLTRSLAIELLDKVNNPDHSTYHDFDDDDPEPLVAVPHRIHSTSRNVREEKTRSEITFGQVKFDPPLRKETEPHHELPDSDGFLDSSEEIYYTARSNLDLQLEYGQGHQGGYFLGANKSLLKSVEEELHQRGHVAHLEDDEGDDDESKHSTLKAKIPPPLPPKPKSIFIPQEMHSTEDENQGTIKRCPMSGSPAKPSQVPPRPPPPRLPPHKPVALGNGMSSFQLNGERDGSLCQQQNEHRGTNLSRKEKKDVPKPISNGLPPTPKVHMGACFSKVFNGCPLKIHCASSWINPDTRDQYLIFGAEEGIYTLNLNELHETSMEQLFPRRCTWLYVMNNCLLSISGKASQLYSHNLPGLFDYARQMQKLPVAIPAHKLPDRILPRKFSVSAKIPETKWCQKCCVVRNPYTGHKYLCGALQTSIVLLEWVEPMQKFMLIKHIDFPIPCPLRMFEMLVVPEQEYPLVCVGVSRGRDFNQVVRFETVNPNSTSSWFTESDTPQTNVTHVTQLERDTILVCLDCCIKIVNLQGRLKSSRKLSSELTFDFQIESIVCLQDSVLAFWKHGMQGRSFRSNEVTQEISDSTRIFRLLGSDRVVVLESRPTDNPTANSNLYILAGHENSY
T32 sequence (Q96RR4 whole entry): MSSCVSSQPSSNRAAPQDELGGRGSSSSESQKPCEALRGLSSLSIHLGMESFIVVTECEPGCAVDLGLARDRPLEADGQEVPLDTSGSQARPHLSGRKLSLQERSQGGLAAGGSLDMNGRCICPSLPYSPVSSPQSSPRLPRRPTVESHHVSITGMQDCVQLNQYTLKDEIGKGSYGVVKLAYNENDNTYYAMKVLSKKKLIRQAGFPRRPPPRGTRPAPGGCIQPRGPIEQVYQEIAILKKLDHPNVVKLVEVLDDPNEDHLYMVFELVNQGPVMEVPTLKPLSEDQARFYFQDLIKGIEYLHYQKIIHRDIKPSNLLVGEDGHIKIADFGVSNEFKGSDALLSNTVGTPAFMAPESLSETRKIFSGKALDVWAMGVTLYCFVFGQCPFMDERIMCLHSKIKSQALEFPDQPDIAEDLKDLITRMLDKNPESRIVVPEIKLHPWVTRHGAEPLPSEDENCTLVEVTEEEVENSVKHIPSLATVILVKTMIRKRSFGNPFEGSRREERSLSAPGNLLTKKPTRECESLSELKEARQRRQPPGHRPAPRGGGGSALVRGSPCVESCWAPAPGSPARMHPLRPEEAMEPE
T17 sequence (P78368 whole entry): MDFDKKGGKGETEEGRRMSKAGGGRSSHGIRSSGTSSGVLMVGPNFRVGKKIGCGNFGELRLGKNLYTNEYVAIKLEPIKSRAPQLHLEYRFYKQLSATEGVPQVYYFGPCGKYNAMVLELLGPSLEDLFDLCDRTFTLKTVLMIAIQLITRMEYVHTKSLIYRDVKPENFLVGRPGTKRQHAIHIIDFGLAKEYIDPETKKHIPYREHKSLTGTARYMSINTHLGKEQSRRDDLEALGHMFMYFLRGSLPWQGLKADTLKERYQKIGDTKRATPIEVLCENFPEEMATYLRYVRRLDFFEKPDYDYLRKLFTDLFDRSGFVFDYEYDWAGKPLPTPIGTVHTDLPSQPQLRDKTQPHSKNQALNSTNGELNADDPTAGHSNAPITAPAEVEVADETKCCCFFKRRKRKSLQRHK
T24 sequence (P07332 whole entry): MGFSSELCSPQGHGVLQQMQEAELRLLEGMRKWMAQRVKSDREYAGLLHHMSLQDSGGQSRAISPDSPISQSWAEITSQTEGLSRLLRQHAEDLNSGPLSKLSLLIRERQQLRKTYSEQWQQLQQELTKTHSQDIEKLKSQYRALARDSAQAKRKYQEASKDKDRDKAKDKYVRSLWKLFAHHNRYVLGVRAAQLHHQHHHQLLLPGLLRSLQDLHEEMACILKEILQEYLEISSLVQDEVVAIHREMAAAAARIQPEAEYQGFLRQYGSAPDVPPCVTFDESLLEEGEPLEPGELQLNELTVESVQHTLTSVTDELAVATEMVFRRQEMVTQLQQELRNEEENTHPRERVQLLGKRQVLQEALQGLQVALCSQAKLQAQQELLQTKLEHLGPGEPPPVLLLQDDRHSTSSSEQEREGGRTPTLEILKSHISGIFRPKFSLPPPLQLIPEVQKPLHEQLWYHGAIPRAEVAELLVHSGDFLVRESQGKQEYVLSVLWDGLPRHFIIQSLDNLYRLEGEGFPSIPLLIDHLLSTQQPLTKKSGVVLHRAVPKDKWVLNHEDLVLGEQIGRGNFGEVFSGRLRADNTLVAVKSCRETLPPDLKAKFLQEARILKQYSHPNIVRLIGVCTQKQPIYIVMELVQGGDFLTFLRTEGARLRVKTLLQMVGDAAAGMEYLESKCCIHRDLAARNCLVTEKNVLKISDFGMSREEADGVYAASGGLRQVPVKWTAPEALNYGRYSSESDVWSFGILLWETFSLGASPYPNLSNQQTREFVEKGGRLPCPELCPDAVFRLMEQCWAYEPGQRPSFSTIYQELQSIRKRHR
T27 sequence (P16234 24-1089): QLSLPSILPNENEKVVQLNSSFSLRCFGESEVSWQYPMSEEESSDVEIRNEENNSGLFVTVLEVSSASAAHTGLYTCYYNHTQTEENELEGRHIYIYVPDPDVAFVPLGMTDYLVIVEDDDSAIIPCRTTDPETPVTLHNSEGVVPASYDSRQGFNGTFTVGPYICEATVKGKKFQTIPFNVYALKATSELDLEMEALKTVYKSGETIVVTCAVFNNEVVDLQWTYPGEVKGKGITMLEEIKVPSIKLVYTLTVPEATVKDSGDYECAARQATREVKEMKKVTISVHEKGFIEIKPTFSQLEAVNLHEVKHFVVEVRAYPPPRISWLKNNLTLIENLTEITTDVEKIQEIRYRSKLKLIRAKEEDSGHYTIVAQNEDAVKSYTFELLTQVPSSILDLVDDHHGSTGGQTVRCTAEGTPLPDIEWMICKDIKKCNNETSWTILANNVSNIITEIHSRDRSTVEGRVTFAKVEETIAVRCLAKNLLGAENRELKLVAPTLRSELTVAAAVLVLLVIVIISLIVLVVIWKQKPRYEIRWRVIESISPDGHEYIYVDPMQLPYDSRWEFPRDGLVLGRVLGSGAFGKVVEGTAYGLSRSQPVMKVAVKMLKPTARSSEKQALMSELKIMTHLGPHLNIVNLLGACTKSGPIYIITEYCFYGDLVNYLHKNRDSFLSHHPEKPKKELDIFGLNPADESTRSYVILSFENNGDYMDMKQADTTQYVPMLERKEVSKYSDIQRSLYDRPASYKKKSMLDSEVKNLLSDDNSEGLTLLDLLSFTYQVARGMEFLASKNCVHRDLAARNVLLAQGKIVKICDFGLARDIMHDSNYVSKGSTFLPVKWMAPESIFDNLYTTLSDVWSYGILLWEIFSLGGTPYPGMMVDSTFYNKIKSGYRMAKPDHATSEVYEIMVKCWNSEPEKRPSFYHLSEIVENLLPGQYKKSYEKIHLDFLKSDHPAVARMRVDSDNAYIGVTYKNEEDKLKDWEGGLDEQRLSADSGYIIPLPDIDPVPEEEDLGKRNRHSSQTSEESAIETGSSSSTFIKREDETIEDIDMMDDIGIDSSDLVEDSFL
T10 sequence (Q15349 389-733 limits assumed): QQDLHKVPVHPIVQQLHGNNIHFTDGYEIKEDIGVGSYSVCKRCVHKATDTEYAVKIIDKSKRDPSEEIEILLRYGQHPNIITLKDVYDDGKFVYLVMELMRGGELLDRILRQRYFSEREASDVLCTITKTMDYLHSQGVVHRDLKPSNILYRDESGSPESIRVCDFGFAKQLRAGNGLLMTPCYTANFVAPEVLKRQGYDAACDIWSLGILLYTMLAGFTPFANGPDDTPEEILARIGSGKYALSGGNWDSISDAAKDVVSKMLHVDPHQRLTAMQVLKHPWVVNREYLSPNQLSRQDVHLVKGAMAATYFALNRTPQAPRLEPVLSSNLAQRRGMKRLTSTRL

For `Cc1ccc(-n2cc(COc3cccc4cnc(Nc5cccc(Cl)c5)nc34)nn2)c([N+](=O)[O-])c1` [DB18], the remaining binding at 1 µM [1] was 97%, the remaining binding at 1 µM [2] was 100% and the remaining binding at 1 µM [3] was 100%. It also gave a remaining binding at 1 µM [4] of 100%, a remaining binding at 1 µM [5] of 87% and a remaining binding at 1 µM [6] of 96%. The remaining binding at 1 µM [7] was 100%, the remaining binding at 1 µM [8] was 99% and the remaining binding at 1 µM [9] was 67%. It also gave a remaining binding at 1 µM [10] of 100%, a remaining binding at 1 µM [11] of 100% and a remaining binding at 1 µM [12] of 100%. For the same molecule, the remaining binding at 1 µM [13] was 100%, the remaining binding at 1 µM [14] was 100% and the remaining binding at 1 µM [15] was 95%. It also gave a remaining binding at 1 µM [16] of 99%, a remaining binding at 1 µM [17] of 90% and a remaining binding at 1 µM [18] of 94%. It also gave a remaining binding at 1 µM [19] of 100%, a remaining binding at 1 µM [20] of 91% and a remaining binding at 1 µM [21] of 100%. The remaining binding at 1 µM [22] was 98%, the remaining binding at 1 µM [23] was 99% and the remaining binding at 1 µM [24] was 100%. For the same molecule, the remaining binding at 1 µM [25] was 95%, the remaining binding at 1 µM [26] was 100% and the remaining binding at 1 µM [27] was 100%. It also gave a remaining binding at 1 µM [28] of 93%, a remaining binding at 1 µM [29] of 100% and a remaining binding at 1 µM [30] of 100%. It also gave a remaining binding at 1 µM [31] of 100%, a remaining binding at 1 µM [32] of 100% and a remaining binding at 1 µM [33] of 100%. For the same molecule, the remaining binding at 1 µM [34] was 100%, the IC50 [35] was 21 µM and the remaining binding at 1 µM [36] was 100%. For the same molecule, the remaining binding at 1 µM [37] was 91%, the remaining binding at 1 µM [38] was 93% and the remaining binding at 1 µM [39] was 100%. The remaining binding at 1 µM [40] was 100%, the remaining binding at 1 µM [41] was 97% and the remaining binding at 1 µM [42] was 100%.
